Assay results published in US9878999B2, “Proteasome chymotrypsin-like inhibition using PI-1833 analogs” (H. Lee Moffitt Cancer Center and Research Institute, Inc., priority 2011, dated 2018).
Several values for one entry are separate records, joined by “and”; a condition that tells them apart may be missing. Equal entries are not always repeated. Where two headings read alike, the source gives them in different places.

Molecular target: CT-L activity of purified 20S proteasome (Homo sapiens, UniProt P20618+P28074)
Test: in vitro CT-L activity of purified 20S proteasome
Type: biochemical
Settings: for fold loss of CT-L activity: compared to 1; for Chymotrypsin-like activity, % @ 10 μM: Table 2, @ 10 μM; for fold difference of CT-L potency between S- and R-enantiomer: 16c vs 16b, 16e vs 16f
[1] = Table 1, read-out: IC50 (μM) Chymotrypsin-like activity
[2] = read-out: % inhibition of CT-L @ 10 μM, @ 10 μM
[3] = Table 2, read-out: IC50 (μM) Chymotrypsin-like activity
[4] = Table 3, read-out: IC50 (μM) CT-L
[5] = Table 10, read-out: IC50 (μM) CT-L
[6] = Table 5, @ 10 μM, read-out: Screening Results (% Inhibition @ 10 μM) Chymotrypsin-like
[7] = Table 5, read-out: IC50 (μM) Chymotrypsin-like

CC(C)N(Cc1nc(-c2ccccc2)no1)C(=O)COc1ccc(-c2ccccc2)cc1 [11q, 2-(Biphenyl-4-yloxy)-N-isopropyl-N-((3-phenyl-1,2,4-oxadiazol-5-yl)methyl)acetamide]
IC50 [1]: > 10 µM
inhibition at 10 µM [2]: < 70%

CC(C)N(Cc1nc(-c2ccccc2)no1)C(=O)COc1ccc2cc(Br)ccc2c1 [11r, 2-(6-Bromonaphthalen-2-yloxy)-N-isopropyl-N-((3-phenyl-1,2,4-oxadiazol-5-yl)methyl)acetamide]
IC50 [1]: > 10 µM
inhibition at 10 µM [2]: < 70%

CC(C)N(Cc1nc(-c2ccccc2)no1)C(=O)COc1ccc(F)cc1 [11s, 2-(4-Fluorophenoxy)-N-isopropyl-N-((3-phenyl-1,2,4-oxadiazol-5-yl)methyl)acetamide]
CT-L inhibitory activity, in words: poor CT-L inhibitory activity
IC50 [1]: 8.73 ± 3.05 µM
fold loss of CT-L inhibitory activity (compared to 11b): 20 fold

CC(C)N(Cc1nc(-c2cccnc2)no1)C(=O)COc1ccc(O)cc1 [11u]
IC50 [1]: 0.98 ± 0.5 µM
IC50 (read-out: IC50, in vitro CT-L): ~1 µM

CC(C)N(Cc1nc(-c2ccccc2)no1)C(=O)COc1ccc(O)cc1 [11v, 2-(4-hydroxyphenoxy)-N-isopropyl-N-((3-phenyl-1,2,4-oxadiazol-5-yl)methyl)acetamide]
IC50 [1]: 10.1 ± 4.52 µM
IC50 (read-out: IC50, in vitro CT-L): 10 µM

Cc1ccc(OCC(=O)N(Cc2nc(-c3ccccn3)no2)C(C)C)cc1 [11w, N-Isopropyl-N-((3-(pyridin-2-yl)-1,2,4-oxadizaol-5-yl)methyl)-2-(p-tolyloxy)acetamide]
IC50 [1]: 3.75 ± 1.47 µM
IC50 (read-out: IC50, in vitro CT-L): 3.74 ± 1.47 µM

Cc1ccc(OCC(=O)N(Cc2nc(-c3cccnc3)no2)C(C)C)cc1 [11x, N-isopropyl-N-((3-(pyridin-3-yl)-1,2,4-oxadiazol-5-yl)methyl)-2-(p-tolyloxy)acetamide]
fold improved CT-L activity (compared to the hit 1 (PI-1833)): 2.5 fold
IC50 (read-out: IC50, in vitro CT-L): 0.239 ± 0.09 µM

Cc1ccc(OCC(=O)N(Cc2nc(-c3ccncc3)no2)C(C)C)cc1 [11y, N-Isopropyl-N-((3-(pyridin-4-yl)-1,2,4-oxadizaol-5-yl)methyl)-2-(p-tolyloxy)acetamide]
IC50 (read-out: IC50, in vitro CT-L): 0.37 ± 0.04 µM

Cc1ccc(OCC(=O)N(Cc2nc(-c3ccccc3)no2)C(C)C)cn1 [11z, N-Isopropyl-2-(60methylpyridin-3-yloxy)-N-((3-phenyl-1,2,4-oxadiazol-5-yl)methyl)acetamide]
CT-L inhibitory activity, in words: failed to retain the activity
IC50 [1]: 4 ± 0.89 µM

Cc1ccc(OCC(=O)N(Cc2nc(-c3ccc(C)cc3)no2)CC(C)C)cc1 [12a, N-Isobutyl-N-((3-p-tolyl-1,2,4-oxadiazol-5-yl)methyl)-2-(p-tolyloxy)acetamide]
fold loss of CT-L activity: 3 fold
IC50 (read-out: IC50, in vitro CT-L): 2.37 µM

CCN(Cc1nc(-c2ccc(C)cc2)no1)C(=O)COc1ccc(C)cc1 [12b, N-Ethyl-N-((3-p-tolyl-1,2,4-oxadiazol-5-yl)methyl)-2-(p-tolyloxy)acetamide]
IC50 [3]: 8.98 ± 5.21 µM
fold loss of CT-L activity: 14 fold
IC50 (read-out: IC50, in vitro CT-L): 8.8 µM

Cc1ccc(OCC(=O)N(C)Cc2nc(-c3ccc(C)cc3)no2)cc1 [12c, N-Methyl-N-((3-p-tolyl-1,2,4-oxadiazol-5-yl)methyl)-2-(p-tolyloxy)acetamide]
IC50 [3]: 29.9 ± 3.9 µM

Cc1ccc(OCC(=O)NCc2nc(-c3ccc(C)cc3)no2)cc1 [12d, N-((3-p-tolyl-1,2,4-oxadiazol-5-yl)methyl)-2-(p-tolyloxy)acetamide]
Chymotrypsin-like activity, % @ 10 μM: −62% @10 μM.

Cc1ccc(OCC(=O)N(Cc2nc(-c3ccc(C)cc3)no2)C(C)(C)C)cc1 [12e]
Chymotrypsin-like activity, % @ 10 μM: −108.42 ± 118.76%

Cc1ccc(OCC(=O)N(Cc2nc(-c3ccc(C)cc3)no2)C2CC2)cc1 [12f, N-Cyclopropyl-N-((3-p-tolyl-1,2,4-oxadiazol-5-yl)methyl)-2-(p-tolyloxy)acetamide]
Chymotrypsin-like activity, % @ 10 μM: −8.36 ± 19.03%

Cc1ccc(O[C@@H](C)C(=O)N(Cc2nc(-c3cccnc3)no2)C(C)C)cc1 [16b, (S)—N-Isopropyl-N-((3-(pyridine-3-yl)-1,2,4-oxadiazol-5-yl)methyl)-2-(p-tolyloxy)propanamide]
IC50 (read-out: IC50, in vitro CT-L): 0.214 µM

Cc1ccc(O[C@H](C)C(=O)N(Cc2nc(-c3cccnc3)no2)C(C)C)cc1 [16c, (R)—N-Isopropyl-N-((3-(pyridine-3-yl)-1,2,4-oxadiazol-5-yl)methyl)-2-(p-tolyloxy)propanamide]
fold difference of CT-L potency between S- and R-enantiomer: 35 fold
IC50 [4]: 7.52 ± 2.13 µM

CCCc1ccc(O[C@@H](C)C(=O)N(Cc2nc(-c3cccnc3)no2)C(C)C)cc1 [16e, (S)—N-Isopropyl-2-(4-propylphenoxy)-N-((3-(pyridine-3-yl)-1,2,4-oxadiazol-5-yl)methyl)propanamide]
fold difference of CT-L potency between S- and R-enantiomer: 40 fold
IC50 [4]: 0.075 µM

Cc1ccc(OCC(=O)N(Cc2nc(-c3ccc(C)cc3)no2)C(C)C)cc1 [PI-1833 (23)]
IC50 (Table 4, read-out: IC50 (μM) Chymotrypsin-like activity): 0.716 ± 0.27 µM

Cc1ccc(CNC(=O)N(Cc2nc(-c3ccccc3)no2)C(C)C)cc1 [SO2-024, 1-Isopropyl-3-(4-methylbenzyl)-1-((3-phenyl-1,2,4-oxadiazol-5-yl)methyl)urea]
IC50 [5]: > 10 µM
IC50 (read-out: IC50, in vitro CT-L): > 10 µM

CC(C)N(Cc1nc(-c2ccccc2)no1)C(=O)CCc1ccc(C(F)(F)F)cc1 [SO2-027, N-Isopropyl-N-((3-phenyl-1,2,4-oxadiazol-5-yl)methyl)-3-(4-(trifluoromethyl)phenyl)propanamide]
IC50 [5]: 15.7 µM
IC50 (read-out: IC50, in vitro CT-L): 15 µM

Cc1ccc(NCC(=O)N(Cc2nc(-c3ccccc3)no2)C(C)C)cc1 [SO2-090, N-Isopropyl-N-((3-phenyl-1,2,4-oxadiazol-5-yl)methyl)-2-(p-tolylamino)acetamide]
IC50 (read-out: IC50, in vitro CT-L): 5.67 µM

Cc1ccc(OCC(=O)N(CCc2nc(-c3ccccc3)no2)C(C)C)cc1 [SO2-091, N-Isopropyl-N-(2-(3-phenyl-1,2,4-oxadiazol-5-yl)ethyl)-2-(p-tolyloxy)acetamide]
inhibition at 10 µM [2]: 31%

CC(C)N(Cc1nc(-c2cccnc2)no1)C(=O)c1cc2ccccc2o1 [SO3-029]
IC50 [5]: 0.379 ± 0.063 µM

Cc1ccc(OCC(=O)N(Cc2nc(-c3ccc(C)cc3)no2)CC(C)C)cc1 [compound 36]
CT-L inhibitory activity, in words: loss of CT-L proteasome activity
IC50 (Table 7, 20S CT-L proteasome activity, read-out: IC50 (μM) CT-L): 2.37 ± 0.4 µM

CC(C)N(Cc1nc(-c2ccccc2)no1)C(=O)CCc1ccc(C(F)(F)F)cc1 [compound 41]
CT-L inhibitory activity, in words: activity was diminished

Cc1ccc(CNC(=O)N(Cc2nc(-c3ccccc3)no2)C(C)C)cc1 [compound 43]
CT-L inhibitory activity, in words: loss of CT-L activity

Cc1ccc(OCC(=O)N(Cc2nc(-c3ccc(C)cc3)no2)C(C)C)cc1 [drawing 108]
Screening Results (% Inhibition @ 10 μM) Chymotrypsin-like (Table 5, @ 10 μM): 74% and 67% and 71%
inhibition at 10 µM [6]: 73%
IC50 [7]: 0.65 ± 0.38 µM

Cc1ccc(OCC(=O)N(Cc2nc(-c3ccc(C)cc3)no2)CC(C)C)cc1 [drawing 111]
IC50 [7]: 2.37 ± 0.4 µM

Cc1ccc(OCC(=O)N(Cc2nc(-c3ccc(C(F)(F)F)cc3)no2)C(C)C)cc1 [drawing 112]
IC50 [7]: 0.97 ± 0.15 µM

Cc1ccc(OCC(=O)N(Cc2nc(-c3ccc(Cl)cc3)no2)C(C)C)cc1 [drawing 113]
IC50 [7]: 0.45 ± 0.15 µM

CC(C)N(Cc1nc(-c2ccc(Cl)cc2)no1)C(=O)COc1ccc(C(F)(F)F)cc1 [drawing 114]
IC50 [7]: 0.58 µM and 0.857 µM

CC(C)N(Cc1nc(-c2ccc(C(F)(F)F)cc2)no1)C(=O)COc1ccc(C(F)(F)F)cc1 [drawing 115]
IC50 [7]: 2.53 ± 0.95 µM

CC(C)N(Cc1nc(-c2ccccc2)no1)C(=O)COc1ccc(C(F)(F)F)cc1 [drawing 116]
IC50 [7]: 0.43 ± 0.12 µM

Cc1ccc(OCC(=O)N(Cc2nc(-c3ccccc3)no2)C(C)C)cc1 [drawing 117]
IC50 [7]: 0.31 µM

Cc1ccc(-c2noc(CN(C(=O)COc3ccc(C(F)(F)F)cc3)C(C)C)n2)cc1 [drawing 118]
IC50 [7]: 1.08 ± 0.33 µM

CC(C)N(Cc1nc(-c2ccc(Cl)cc2)no1)C(=O)COc1ccc(Cl)cc1 [drawing 119]
IC50 [7]: 1.07 ± 0.05 µM

CC(C)N(Cc1nc(-c2ccc(C(F)(F)F)cc2)no1)C(=O)COc1ccc(Cl)cc1 [drawing 120]
IC50 [7]: 1.4 ± 0.185 µM

CC(C)N(Cc1nc(-c2ccccc2)no1)C(=O)COc1ccc(Cl)cc1 [drawing 121]
IC50 [7]: 0.51 ± 0.16 µM

Cc1ccc(OCC(=O)N(C)Cc2nc(-c3ccc(C)cc3)no2)cc1 [drawing 122]
IC50 [7]: 29.9 ± 3.9 µM

Cc1ccc(-c2noc(CN(C(=O)COc3ccc(Cl)cc3)C(C)C)n2)cc1 [drawing 123]
IC50 [7]: 1.12 ± 0.33 µM

Cc1ccc(-c2noc(CN(C(=O)COc3ccccc3)C(C)C)n2)cc1 [drawing 124]
IC50 [7]: 8.47 ± 0.59 µM

CC(C)N(Cc1nc(-c2ccc(C(F)(F)F)cc2)no1)C(=O)COc1ccccc1 [drawing 126]
IC50 [7]: 15.1 ± 6.94 µM

CC(C)N(Cc1nc(-c2ccccc2)no1)C(=O)COc1ccccc1 [drawing 127]
IC50 [7]: 6.22 ± 1.11 µM

CCN(Cc1nc(-c2ccc(C)cc2)no1)C(=O)COc1ccc(C)cc1 [drawing 128]
IC50 [7]: 8.98 ± 5.21 µM

Cc1ccc(CNC(=O)N(Cc2nc(-c3ccccc3)no2)C(C)C)cc1 [drawing 129]
inhibition at 10 µM [6]: -8.75 ± 17.4%

CC(C)N(Cc1nc(-c2ccccc2)no1)C(=O)CCc1ccc(C(F)(F)F)cc1 [drawing 130]
IC50 [7]: 44 ± 20.9 µM

CC(C)N(Cc1nc(-c2ccccc2)no1)C(=O)COc1ccc(F)cc1 [drawing 131]
IC50 [7]: 8.73 ± 3.05 µM

CC(C)N(Cc1nc(-c2ccccc2)no1)C(=O)COc1ccc(-c2ccccc2)cc1 [drawing 132]
inhibition at 10 µM [6]: < 70%

CC(C)N(Cc1nc(-c2ccccc2)no1)C(=O)COc1ccc2cc(Br)ccc2c1 [drawing 133]
inhibition at 10 µM [6]: < 70%

CCc1ccc(OCC(=O)N(Cc2nc(-c3ccccc3)no2)C(C)C)cc1 [drawing 134]
IC50 [7]: 0.267 ± 0.05 µM

O=C(COc1ccc(C(F)(F)F)cc1)N(Cc1nc(-c2ccccc2)no1)C1CC1 [drawing 135]
Screening Results (% Inhibition @ 10 μM) Chymotrypsin-like (Table 5, @ 10 μM): 35.35% and 33.80%
inhibition at 10 µM [6]: 27.3%
IC50 [7]: 6.37 µM

Cc1cccc(OCC(=O)N(Cc2nc(-c3ccccc3)no2)C(C)C)c1 [drawing 136]
inhibition at 10 µM [6]: < 70%
